# Results reported in patent US8455616B2, “Nuclear translocation peptide” (National Center for Global Health and Medicine, priority 2007, dated 2013).
# Ends that are not written are not given here.
# Experiments:
# HeLa cells [1] = assay: Cytotoxicity test (damage to intracellular DNA, anti-γ-H2AX staining); assay type: cell-based, human; settings: HeLa cells incubated 2 days with peptide, fragmented double-stranded DNA stained with anti-γ-H2AX antibody, FIG. 8
# Description: Testing of the peptide of the present invention for damage to intracellular DNA was performed in the following manner. • (Day 1) HeLa cells were seeded onto a dish at a concentration of 5×10^4 cells/dish, and cultured in 10% FCS/DMEM medium (2 mL). • (Day 2) Recombinant Vpr (protein derived from Vpr), C45D18 (Peptide 9), and LR20 (Peptide 1) were added, and the cells were incubated for 2 days. • (Day 4) The following sequence of treatments was performed on the cells: The dish was washed with PBS→the cells were fixed with 4% paraformaldehyde→after incubation for 20 min on ice, the cells were washed with PBS→200 μL of 1% Triton X-100/2M HCl solution was added, and the cells were incubated at room temperature for 30 min→blocking with 200 μL of 1% BSA was performed at room temperature for 1 h→anti-γ-H2AX antibody solution was added, and the fragmented double-stranded DNA was stained (37° C. for 30 min)→cy3-anti-mouse IgG solution was added, and the cells were incubated at room temperature for 30 min→the nuclei were stained with DAPI/PBST (3 min)→the cells were mounted on glass slides.
# In FIG. 8 the stained parts indicate fragmented DNA.
# [2] = cited from earlier work
# HeLa cells [3] = assay: Cellular and nuclear translocation capability of magnetic particles in HeLa cells; assay type: cell-based, human; settings: peptide-CMDM conjugates, iron 0.7 mg/mL, thymidine-arrested HeLa cells, 18 h exposure, T2 relaxation time by NMR, FIG. 1
# Description: With respect to the amount of cellular and nuclear translocation of the aforementioned peptide-magnetic nanoparticle conjugate, the translocation capability of the peptide of the present invention can be compared with that of a previous PTD by adding the conjugate to cultured cells, separating and recovering the cytoplasm and nuclei after letting the culture stand for a set period of time, measuring the T2 relaxation time by NMR, and measuring the amount of magnetic nanoparticles taken up by the cells.
# After 18 h of exposure, the cells were washed with PBS and recovered, and centrifugal separation (2000 rpm for 5 min) was performed to precipitate the cells into pellets. After the cells were resuspended by adding 700 mL of PBS, they were lysed using a Dounce homogenizer and centrifuged (2000 rpm for 5 min) into pellets. […] Then the T2 relaxation time of each resulting fraction was measured by NMR. Concurrently, the protein concentration of each fraction was measured by BSA protein assay.
# Because a fixed relation is established between T2 relaxation time and magnetic substance concentration, the magnetic substance concentration can be calculated by assuming that the T2 relaxation of the sample is the same before and after the test. The calculated concentration was corrected further using the protein concentration.
molecule,measurement,setting,value
"CC[C@H](C)[C@H](NC(=O)[C@H](CCCNC(=N)N)NC(=O)[C@H](CO)NC(=O)[C@H](Cc1c[nH]cn1)NC(=O)[C@H](CCCNC(=N)N)NC(=O)[C@H](CS)NC(=O)CNC(=O)[C@@H](NC(=O)[C@H](CCCNC(=N)N)NC(=O)[C@H](Cc1ccccc1)NC(=O)[C@H](Cc1c[nH]cn1)NC(=O)[C@@H](NC(=O)[C@H](Cc1ccccc1)NC(=O)[C@H](CC(C)C)NC(=O)[C@H](CC(C)C)NC(=O)[C@H](CCC(N)=O)NC(=O)[C@H](CCC(N)=O)NC(=O)[C@H](CC(C)C)NC(=O)[C@@H](NC(=O)[C@@H](N)CCCNC(=N)N)[C@@H](C)CC)[C@@H](C)CC)[C@@H](C)CC)C(=O)O [Peptide 1, RILQQLLFIHFRIGCRHSRI]",DNA damage (cytotoxicity),HeLa cells [1],extent of DNA damage is decreased
DTWAGVEAIIRILQQLLFIHFRIGCRH [Peptide 9],translocation capability relative to a protein originating in Vpr,"[2]; Taguchi et al., Biochem. Biophys. Res. Comm., 320, 18 (2004)",stronger translocation capability than a protein originating in Vpr
same,translocation capability of conjugates with enzymatic proteins relative to the Tat peptide,"[2]; conjugates of C45D18 and enzymatic proteins, into a cell and into a nucleus, Taguchi et al. (2004)",greater than that of the Tat peptide
"Peptide 12: PTD peptide discovered during research to enhance the function of the Tat peptide (Mukai et al.), synthesized with additional GGC (THRLPRRRRRR; YM-3 peptide)",cellular translocation capability relative to the Tat peptide,"[2]; Mukai et al., Biol. Pharm. Bull. 29(8), 1570 (2006)",approximately three times higher than that of the Tat peptide
R I L Q Q L L F I H F R I G C [Peptide 3],cellular and nuclear translocation capability,HeLa cells [3],best cellular and nuclear translocation capability
"RIFIHFRIGC [Peptide 4, R I F I H F R I G C]",DNA damage (cytotoxicity),HeLa cells [1],no damage to DNA was seen
